The values that follow are results of earlier work, collected in US20130224268A1, “TOPICAL DELIVERY OF HORMONAL AND NON HORMONAL NANO FORMULATIONS, METHODS OF MAKING AND USING THE SAME” (NEWGEN BIOPHARMA CORP., priority 2012, published 2013).

The data set relates to hydroxyproline, a major constituent amino acid in collagen. Conditions: topical estradiol treatment.

Regarding `C[C@]12CC[C@@H]3c4ccc(O)cc4CC[C@H]3[C@@H]1CC[C@@H]2O` [estradiol, (17β)-estra-1,3,5(10)-triene-3,17-diol], the increase in hydroxyproline is listed as 38%.
